Laboratory results from patent US10254290B2, “Systems and methods for identifying protein stabilizers” (The University of Kansas, priority 2012, dated 2019).

Columns and labels:
CFTR = CFTR (Homo sapiens, UniProt P13569); experiment: BLI chaperonin (GroEL) binding to antibody-captured CFTR, with or without stabilizer (scheme of FIG. 9); details: compared with chaperonin alone and buffer signal
Description: In one embodiment, a linker antibody (e.g., anti-mouse antibody) can be attached to the substrate, which is then introduced to a capture antibody (e.g., CFTR antibody), and which is then introduced to a target protein (e.g., cystic fibrosis transmembrane conductance regulator, CFTR). In some instances the capture antibody can be linked directly to the substrate or through a suitable linker. However, the linker antibody can position the capture antibody a suitable distance from the substrate by antibody extension. If no stabilizer is present, a chaperonin (e.g., GroEL) can bind with the target protein to provide a large signal.
As shown, a substrate 202 has an anti-mouse antibody 906 bound thereto. Then, a CFTR antibody 908 is associated with the anti-mouse antibody 906. CFTR 910 is then introduce to and bound with the CFTR antibody 908 before a chaperonin 914 (e.g., GroEL) is introduced to the CFTR/CFTR antibody complex. […] When there is no stabilizer C, the chaperonin 514 binds with the CFTR/CFTR antibody complex to form complex 920 and to produce a large signal. When the stabilizer C is present, there is a decreased binding signal to indicate that the chaperonin cannot bind with the CFTR/CFTR antibody complex. […]

CFTR-NBD1 = CFTR-NBD1 (Homo sapiens, UniProt P13569); experiment: GroEL binding to CFTR-NBD1 bound directly to the substrate; details: CFTR-NBD1 introduced to GTP prior to GroEL
Description: Additionally, the CFTR nucleotide binding domain (e.g., CFTR-NBD1) may be bound directly to the substrate, which is then introduced to a GroEL buffer. […] When the CFTR-NBD1 is not introduced to GTP prior to being introduced to GroEL, there is a much higher single. Other substances besides GTP can also be screen to identify inhibitors of forming the CFTR-NBD1/GroEL complex.

GroEL chaperonin = GroEL chaperonin (Escherichia coli, UniProt P0A6F5); experiment: Binding of the substance to the chaperonin itself
[1] = target: T1, dihydrofolate reductase (DHFR) (Homo sapiens, UniProt P00374); experiment: Control experiment: biotinylated GroEL chaperonin on a BLI substrate dipped into a DHFR solution; assay type: binding
T1 sequence (P00374 1-187): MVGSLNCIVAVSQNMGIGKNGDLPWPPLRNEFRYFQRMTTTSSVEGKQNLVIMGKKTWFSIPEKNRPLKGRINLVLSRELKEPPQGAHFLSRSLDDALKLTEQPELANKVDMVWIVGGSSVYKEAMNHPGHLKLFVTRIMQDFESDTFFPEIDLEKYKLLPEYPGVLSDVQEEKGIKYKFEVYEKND
Description: The chaperonin can bind particular target proteins as they transiently expose hydrophobic surfaces from their partially folded forms. The partitioning kinetics can be followed using the BLI high throughput system (Fortebio Octet™) or SPR or other suitable technology. With BLI as an example, the chaperonin can be attached to the BLI tip substrate to dip into a target protein solution. Alternatively, the capture protein and/or target protein can be attached to the BLI tip substrate to dip into a chaperonin solution. The chaperonin will bind with transitioned target proteins (e.g., second conformation), but has no or low binding with folded target proteins (e.g., first conformation). […] Potential protein stabilizers can be screened to see which ones inhibit the chaperonin from binding to the target protein by the stabilizer retaining the protein in the first conformation. In the presence of a potential protein stabilizer, the partitioning kinetic amplitudes show significant declines (e.g., inhibition of partitioning) or even abolish global partitioning, which is scored as a potential lead compound. Once identified, potential protein stabilizer compounds can be further tested with target proteins in secondary screens. […]

Chain of CFTR (P13569 whole entry, species assumed): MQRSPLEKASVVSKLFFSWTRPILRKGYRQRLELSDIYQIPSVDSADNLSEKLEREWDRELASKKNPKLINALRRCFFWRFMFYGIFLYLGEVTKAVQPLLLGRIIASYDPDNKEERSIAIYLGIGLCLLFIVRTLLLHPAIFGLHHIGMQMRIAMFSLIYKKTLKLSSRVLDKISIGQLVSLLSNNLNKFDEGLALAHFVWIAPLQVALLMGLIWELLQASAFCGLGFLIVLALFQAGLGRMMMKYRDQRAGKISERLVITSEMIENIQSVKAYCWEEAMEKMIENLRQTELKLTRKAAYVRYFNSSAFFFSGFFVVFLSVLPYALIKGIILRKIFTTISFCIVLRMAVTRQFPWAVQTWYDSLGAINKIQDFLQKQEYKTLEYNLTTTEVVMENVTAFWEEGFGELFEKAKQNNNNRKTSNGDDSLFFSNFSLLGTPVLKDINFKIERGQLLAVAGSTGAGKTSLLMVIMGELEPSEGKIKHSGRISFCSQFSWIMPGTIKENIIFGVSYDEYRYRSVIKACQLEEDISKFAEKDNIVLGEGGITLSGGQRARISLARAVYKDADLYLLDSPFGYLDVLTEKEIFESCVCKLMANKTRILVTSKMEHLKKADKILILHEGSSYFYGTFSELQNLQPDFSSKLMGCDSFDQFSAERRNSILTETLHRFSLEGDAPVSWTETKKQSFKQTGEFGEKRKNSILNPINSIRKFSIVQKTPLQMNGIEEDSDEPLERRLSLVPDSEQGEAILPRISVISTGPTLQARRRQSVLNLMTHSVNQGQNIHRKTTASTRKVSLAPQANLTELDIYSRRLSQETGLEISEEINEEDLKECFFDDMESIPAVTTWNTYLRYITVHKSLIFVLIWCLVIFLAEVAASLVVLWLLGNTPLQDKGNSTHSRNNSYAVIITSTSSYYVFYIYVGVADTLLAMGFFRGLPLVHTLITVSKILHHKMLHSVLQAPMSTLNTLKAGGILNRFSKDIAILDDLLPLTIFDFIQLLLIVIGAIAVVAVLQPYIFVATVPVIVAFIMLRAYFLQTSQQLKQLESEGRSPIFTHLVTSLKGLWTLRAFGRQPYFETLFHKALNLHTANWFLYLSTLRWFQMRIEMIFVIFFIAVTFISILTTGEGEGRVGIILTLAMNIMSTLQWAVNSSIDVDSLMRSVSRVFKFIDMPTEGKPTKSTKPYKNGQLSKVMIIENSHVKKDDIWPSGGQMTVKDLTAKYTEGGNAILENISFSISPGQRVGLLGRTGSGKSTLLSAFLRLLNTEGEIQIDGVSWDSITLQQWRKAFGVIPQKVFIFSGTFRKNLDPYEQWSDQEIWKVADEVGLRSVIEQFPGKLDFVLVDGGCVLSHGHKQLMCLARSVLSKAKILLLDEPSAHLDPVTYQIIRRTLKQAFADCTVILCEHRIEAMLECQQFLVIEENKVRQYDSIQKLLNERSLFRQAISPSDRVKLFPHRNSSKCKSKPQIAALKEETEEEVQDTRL
Chain of CFTR-NBD1 (P13569 423-646 limits assumed): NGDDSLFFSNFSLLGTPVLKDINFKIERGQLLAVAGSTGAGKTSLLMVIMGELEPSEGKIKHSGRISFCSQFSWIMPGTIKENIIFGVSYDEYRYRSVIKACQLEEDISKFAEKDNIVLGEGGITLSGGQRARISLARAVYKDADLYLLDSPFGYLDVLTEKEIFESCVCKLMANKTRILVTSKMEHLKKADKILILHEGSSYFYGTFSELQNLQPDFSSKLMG
Chain of GroEL chaperonin (P0A6F5 2-548): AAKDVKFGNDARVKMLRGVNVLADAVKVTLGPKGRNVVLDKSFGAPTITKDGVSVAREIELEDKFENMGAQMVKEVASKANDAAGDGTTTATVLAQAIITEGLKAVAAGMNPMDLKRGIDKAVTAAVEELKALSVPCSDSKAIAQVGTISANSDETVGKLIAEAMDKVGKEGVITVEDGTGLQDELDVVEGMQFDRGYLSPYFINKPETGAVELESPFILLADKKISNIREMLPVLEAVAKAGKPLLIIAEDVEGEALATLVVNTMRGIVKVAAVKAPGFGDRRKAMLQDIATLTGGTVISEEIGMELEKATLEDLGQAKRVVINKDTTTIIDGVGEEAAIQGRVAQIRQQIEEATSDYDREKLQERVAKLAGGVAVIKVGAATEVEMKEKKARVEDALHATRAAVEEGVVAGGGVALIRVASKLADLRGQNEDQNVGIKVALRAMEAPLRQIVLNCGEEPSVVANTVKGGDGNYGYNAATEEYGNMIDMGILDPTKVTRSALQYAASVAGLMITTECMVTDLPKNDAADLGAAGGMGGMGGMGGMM

| Compound | chaperonin binding signal (stabilization of CFTR) (CFTR) | signal of GroEL binding to CFTR-NBD1 (CFTR-NBD1) | binding to the GroEL chaperonin (GroEL chaperonin) | signal of GroEL-DHFR interaction ([1]; BLI, NADPH e.g. 10 mM) | signal of GroEL-DHFR interaction, combination ([1]; combination of GroEL and DHFR and 10 mM NADPH) |
| --- | --- | --- | --- | --- | --- |
| Nc1nc2c(ncn2[C@@H]2O[C@H](COP(=O)(O)OP(=O)(O)OP(=O)(O)O)[C@@H](O)[C@H]2O)c(=O)[nH]1 [GTP, guanosine triphosphate] | decreased the chaperonin binding and decreased the signal | no signal or a low single | does not bind | – | – |
| NC(=O)C1=CN([C@@H]2O[C@H](COP(=O)(O)OP(=O)(O)OC[C@H]3O[C@@H](n4cnc5c(N)ncnc54)[C@H](OP(=O)(O)O)[C@@H]3O)[C@@H](O)[C@H]2O)C=CC1 [NADPH] | – | – | – | decrease the signal | further reduce the signal |
